{"source": "patent US12194026B2", "about": "“Drug for treating tinnitus” (UNIVERSITY OF SOUTH FLORIDA, priority 2018, dated 2025)", "key": {"[1]": {"system": "young adult CBA/CaJ mice", "test": "Acoustic startle reflex (ASR) amplitude, startle input-output function, salicylate (SS) tinnitus model", "description": "(§1) SS can be administrated 2 hours before measuring the behavioral manifestations of tinnitus.\n(§2) Behavioral assay: The presence of tinnitus may be indicated by a failure to respond to silence embedded in sound stimuli near the tinnitus frequency. A sound pulse-evoked acoustic startle reflex (ASR) is commonly used to determine if an animal can detect silent gaps in narrow-band noise and this method appears to detect tinnitus in humans. Failure of a first sound pulse to suppress a second sound pulse-evoked startle reflex is indicative of tinnitus. This ASR assay has a similar sensitivity for changes in gap detection to a behavioral conditioning paradigm in which animals are trained to response to gaps in noise. Elevations in the ASR amplitude have been linked to the presence of hyperacusis, a disorder often comorbid with tinnitus. Thus, the assay probed possible influences of BK channel function on both tinnitus and hyperacusis.\n(§3) General Procedure. Mice underwent sequential assessment of the effect of treatment (baseline; sodium salicylate; sodium salicylate with BMS-191011). Baseline measures were acquired before sodium salicylate (SS) administration so that mice served as their own controls. Tinnitus was induced transiently by intraperitoneal (i.p.) injection of 250 mg/kg SS (concentration: 25 mg/mL 0.9% saline). SS induces tinnitus in humans, and SS-treated animals share markers of tinnitus with humans. Behavioral or neurophysiological manifestations of tinnitus were assessed 2 hours following SS injection, and were completed within 3.5 hours. Jastreboff et al. reported that after an i.p. injection of SS in rats, the maximum levels in blood serum occurred 1.5 hours later, while the maximum levels in the perilymph and spinal fluid reached maximum levels within 2-4 hours. However, behavioral manifestations of tinnitus are observed up to 48 hours following administration (cite). […]\nBehavioral Assays. Behavioral assessment were performed as described previously (Longenecker and Galazyuk, 2011; Lowe and Walton, 2015), and as briefly outlined below. The animals were acclimated to the testing room by placing the home cage in the testing room 30 min prior to testing. The acoustic startle response (ASR), a transient motor response to a startle eliciting stimulus (SES), was converted to voltage by placing mice on a custom-built platform connected to piezoelectric transducers located inside a sound attenuated chamber. SESs were 20-ms Gaussian broadband noise bursts (1-ms rise/fall time), filtered at 500 Hz-40 kHz. To measure threshold and amplitude of the ASR, the intensity of the SES was varied between 55-115 dB SPL. Ten trials were run for each stimulus in order to acquire the startle input-output function."}, "[2]": {"system": "young adult CBA/CaJ mice", "test": "Gap pre-pulse inhibition of the acoustic startle (GPIAS), Gap-PPI, SS-induced tinnitus", "description": "as §1, §2, §3\nModification of the ASR by stimuli placed before the SES is typically observed as a reduction in startle amplitude or pre-pulse inhibition (Hoffman and Ison, 1980; Ison and Hoffman, 1983). To probe the tinnitus percept (Longenecker and Galazyuk, 2012; Turner, 2007), Turner and colleagues used a relatively long silent gap imbedded in an ongoing narrow band noise (NBN) placed before the SES; various center frequencies of the NBN were used. The paradigm as a whole is referred to as the gap pre-pulse inhibition of the acoustic startle (GPIAS). The silent gap is demonstrably perceived; but, if the tinnitus pitch is in the region of the pitch of the ongoing NBN, the animal will presumably be impaired at detecting the gap (Turner, et al 2007). The presence of tinnitus is then indicated by a reduction in pre-pulse inhibition to the gap stimulus, or Gap-PPI, when the gap carrier pitch is near the tinnitus frequency (Turner, 2007). To perform the GPIAS assay, in this study the SES (presented at 100 dB SPL) was preceded by a 150-ms, 70-dB narrow band noise (⅓ octave) centered at 6, 12, 16, 20, or 24 kHz. During gap trials, a 50-ms silent gap was inserted 100 ms before the SES. Ten trials of each stimulus were presented to obtain the Gap PPI function."}, "[3]": {"system": "CBA/CaJ mice", "test": "Auditory brainstem response (ABR) recordings before and after SS", "description": "General Procedure. Mice underwent sequential assessment of the effect of treatment (baseline; sodium salicylate; sodium salicylate with BMS-191011). Baseline measures were acquired before sodium salicylate (SS) administration so that mice served as their own controls. Tinnitus was induced transiently by intraperitoneal (i.p.) injection of 250 mg/kg SS (concentration: 25 mg/mL 0.9% saline). SS induces tinnitus in humans, and SS-treated animals share markers of tinnitus with humans. Behavioral or neurophysiological manifestations of tinnitus were assessed 2 hours following SS injection, and were completed within 3.5 hours. Jastreboff et al. reported that after an i.p. injection of SS in rats, the maximum levels in blood serum occurred 1.5 hours later, while the maximum levels in the perilymph and spinal fluid reached maximum levels within 2-4 hours. However, behavioral manifestations of tinnitus are observed up to 48 hours following administration (cite). BMS-191011 (Sigma Aldrich) was administered i.p. (0.5 mg/kg) or topically (1 μL of 1-10 μM) at the dura over the auditory midbrain.\nABR Assays. To obtain an electrophysiological measure of auditory evoked activity in the auditory nerve and brainstem, ABR assays were performed as described previously (Longenecker and Galazyuk, 2011; Lowe and Walton, 2015), and as briefly outlined below. Animals were anesthetized with i.p. administration of ketamine (120 mg/kg) and xylazine (10 mg/kg). Respiration was monitored during testing and used to guide administration of supplemental anesthesia. Body temperature was kept constant at 37° C. using a feedback-controlled heating pad (Physitemp TCAT2-LV Controller, Clifton, NJ).\nABRs were recorded using BioSig software in a soundproof booth lined with echo-attenuating acoustic foam. ABRs were evoked by 256 tone burst stimuli. Tone bursts were 3 msec in duration (1-ms rise/fall time, alternating polarity) presented at 6, 12, 16, 20, 24, and 36 kHz at a rate of 29 per second, attenuated in 5 dB steps from 80 dB SPL to 15 dB below threshold or 5 dB SPL, whichever was lower. Threshold was determined by visual inspection as the lowest intensity level which produced a defined peak in two replicates. Peaks 1-5 (P1-5) were detected and measured in the ABR waveforms using custom designed MATLAB software."}, "[4]": {"system": "IC of awake CBA/CaJ mice", "test": "Multi-channel neurophysiological recordings in the inferior colliculus (IC, auditory midbrain)", "assay_type": "in vivo, mouse", "description": "IC neurophysiological recordings. Surgery and extracellular recordings were collected and analyzed by a method identical to a procedure used in a previous study. The right IC was located stereotaxically and exposed via a small (<1.0 mm) craniotomy. Prior to recording, chlorprothixene (Taractin®, 5-12 μl/g i.m.) was administered to prevent involuntary movement via inhibition of parasympathetic nerve impulses. The animal was then secured in a custom stereotaxic frame (Newport-Klinger) in a heated (34° C.) chamber lined with sound-absorbing foam (Sonex®). Multi-unit extracellular activity was recorded using vertically oriented single shank silicon acute penetrating 16-channel electrodes with an impedance ranging from 1.2 to 2.1 MΩ (Type-A, 3 mm×100 μm; NeuroNexus Technologies). Excitatory frequency response areas (eFRAs) from all active channels were acquired simultaneously using 2 to 64 kHz, 25 ms (5 ms rise/fall) tone burst stimuli presented at 0 to 80 dB SPL in 5 dB steps. A total of 2125 frequency and intensity combinations were presented pseudo-randomly five times each at a rate of 10/s. The change in the driven response due to treatment was assessed via maximum number of spikes per stimulus within the boundary of each eFRA."}, "[5]": {"target": "BK channel (Homo sapiens, UniProt Q12791)", "sequence (Q12791 whole entry, species assumed)": "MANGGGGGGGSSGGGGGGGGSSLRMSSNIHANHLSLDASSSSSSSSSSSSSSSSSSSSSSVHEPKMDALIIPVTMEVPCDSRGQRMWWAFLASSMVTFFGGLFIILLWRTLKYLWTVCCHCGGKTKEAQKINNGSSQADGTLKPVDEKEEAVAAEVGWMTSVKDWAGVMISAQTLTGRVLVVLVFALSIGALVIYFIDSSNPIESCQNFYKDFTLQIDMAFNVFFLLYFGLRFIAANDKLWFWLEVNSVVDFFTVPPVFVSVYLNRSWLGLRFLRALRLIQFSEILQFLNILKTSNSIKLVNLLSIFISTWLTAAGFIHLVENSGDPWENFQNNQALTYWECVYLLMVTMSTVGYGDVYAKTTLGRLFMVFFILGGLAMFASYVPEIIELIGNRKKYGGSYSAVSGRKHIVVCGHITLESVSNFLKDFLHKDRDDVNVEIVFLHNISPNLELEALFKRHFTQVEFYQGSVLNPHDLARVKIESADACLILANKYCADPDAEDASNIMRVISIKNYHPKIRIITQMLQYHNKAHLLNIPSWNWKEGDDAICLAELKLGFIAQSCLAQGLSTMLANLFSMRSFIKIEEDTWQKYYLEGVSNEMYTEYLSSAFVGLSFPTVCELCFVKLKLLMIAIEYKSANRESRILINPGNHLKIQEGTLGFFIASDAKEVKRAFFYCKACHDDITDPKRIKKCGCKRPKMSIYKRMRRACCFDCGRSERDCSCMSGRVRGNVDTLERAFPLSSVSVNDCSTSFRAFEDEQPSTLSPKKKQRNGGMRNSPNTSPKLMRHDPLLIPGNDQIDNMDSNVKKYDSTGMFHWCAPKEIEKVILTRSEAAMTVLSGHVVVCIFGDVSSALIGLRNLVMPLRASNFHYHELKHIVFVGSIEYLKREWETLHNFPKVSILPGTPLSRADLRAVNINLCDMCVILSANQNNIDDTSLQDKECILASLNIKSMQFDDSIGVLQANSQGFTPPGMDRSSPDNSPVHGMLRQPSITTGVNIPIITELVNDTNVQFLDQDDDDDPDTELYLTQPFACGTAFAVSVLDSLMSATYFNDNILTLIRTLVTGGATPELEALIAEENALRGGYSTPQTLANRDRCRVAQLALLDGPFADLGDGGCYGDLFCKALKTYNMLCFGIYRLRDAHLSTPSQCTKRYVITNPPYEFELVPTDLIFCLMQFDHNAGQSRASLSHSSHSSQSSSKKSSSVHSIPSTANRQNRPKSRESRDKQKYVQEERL", "settings": "relative to Maxipost; cited from earlier work"}, "[6]": {"settings": "in vivo; cited from earlier work"}, "[7]": {"system": "animals", "settings": "cited from earlier work"}, "[8]": {"settings": "cited from earlier work"}, "[9]": {"settings": "BMS-191011 after SS, 12, 16, 20, 24 kHz tones"}, "[10]": {"settings": "BMS-191011 after SS, 60 dB tones"}, "[11]": {"settings": "SS 250 mg/kg i.p., 12-20 kHz stimuli"}, "[12]": {"settings": "rats, after i.p. injection, Jastreboff et al."}}, "note": "“Also recorded” adds a separate entry of the source."}
{"smiles": "O=c1oc(-c2ccc(C(F)(F)F)cc2)nn1Cc1cc(Cl)ccc1O", "note": "[BMS-191011, 3-[(5-chloro-2-hydroxyphenyl)methyl]-5-[4-(trifluoromethyl)phenyl]-1,3,4-oxadiazol-2(3H)-one]", "values": [{"measurement": "ASR amplitude after SS treatment", "setting": "[1]; Example 1, mouse model, SS 2 hours before, BMS191011 i.p. 5 mg/kg", "value": "did not appear to return this toward baseline"}, {"measurement": "SS-induced increase in startle amplitude intensity-response function", "setting": "[1]; Example 2, BMS-191011 i.p. after SS 250 mg/kg, 1 hour before testing, N=6", "value": "did not reverse the effects of SS administration; also recorded: not significantly altered"}, {"measurement": "startle amplitudes, compound administered alone", "setting": "[1]; Example 2, without SS", "value": "did not alter startle amplitudes"}, {"measurement": "Gap-PPI for stimuli within the tinnitus percept", "setting": "[2]; Example 1, 16 kHz region, after SS, BMS191011 i.p. 5 mg/kg", "value": "returned Gap-PPI to baseline levels"}, {"measurement": "% Gap PPI, 12-20 kHz carriers", "setting": "[2]; Example 2, BMS-191011 after SS 250 mg/kg, N=6", "value": "returned SS-suppressed Gap-PPIs to baseline levels"}, {"measurement": "Gap-PPI, 24 kHz carrier", "setting": "[2]; Example 2, BMS-191011 after SS, outside expected tinnitus range", "value": "no effect on Gap-PPI"}, {"measurement": "Gap-PPI functions, compound administered alone", "setting": "[2]; Example 2, without SS", "value": "not significantly altered from baseline"}, {"measurement": "effect of SS on ABR P2 amplitudes", "setting": "[3]; BMS-191011 after SS", "value": "did not substantively alter; also recorded: did not significantly alter the effect of SS treatment"}, {"measurement": "effect of SS on ABR P4 amplitudes", "setting": "[3]; BMS-191011 after SS", "value": "did not substantively alter; also recorded: did not significantly alter the effect of SS treatment"}, {"measurement": "SS-induced ABR threshold shift", "setting": "[3]; BMS-191011 after SS, 1 hour before ABR recordings", "value": "did not significantly alter; also recorded: not further altered"}, {"measurement": "SS-induced decrease in ABR P1 amplitudes", "setting": "[3]; [9]", "value": "did not significantly alter the effect of SS treatment"}, {"measurement": "SS-induced shift in ABR P1 latencies", "setting": "[3]; [9]", "value": "did not significantly alter; also recorded: minimally altered the effect of SS treatment"}, {"measurement": "SS-increased P2/P1 amplitude ratio", "setting": "[3]; [10]", "value": "did not substantively alter; also recorded: unaltered"}, {"measurement": "SS-increased P4/P1 amplitude ratio", "setting": "[3]; [10]", "value": "unaltered"}, {"measurement": "sound-evoked activity in the IC", "setting": "[4]; Example 1, control mice, local administration (topical application over the dura)", "value": "suppressed sound-evoked activity"}, {"measurement": "spontaneous activity (spontaneous spikes per 25 ms)", "setting": "[4]; mice not given SS, topical 1 μL of 1-10 μM", "value": "remained unchanged; also recorded: no significant change"}, {"measurement": "reduction of sound-evoked activity (maximum number of spikes evoked by a tone)", "setting": "[4]; mice not given SS, topical 1 μL of 1-10 μM, hours 2-4 after treatment", "value": "~50", "unit": "%"}, {"measurement": "time after administration by which suppression of sound-evoked activity (maximal spikes per 25 ms stimulus) is significant", "setting": "[4]; mice not given SS, topical at the dura, 1 μL of a 1-10 μM solution", "value": "≤ 1", "unit": "h"}, {"measurement": "affinity and specificity for the BK channel compared with Maxipost", "setting": "[5]", "value": "higher affinity and specificity"}, {"measurement": "brain availability", "setting": "[6]", "value": "high brain-availability"}, {"measurement": "cardiac effects (heart rate, blood pressure)", "setting": "[7]; animals", "value": "without signs of negative cardiac effects"}, {"measurement": "tolerability in animals", "setting": "[7]; in vivo", "value": "well-tolerated"}]}
{"smiles": "O=C([O-])c1ccccc1O.[Na+]", "note": "[SS, sodium salicylate]", "values": [{"measurement": "startle amplitude intensity-response function relative to baseline", "setting": "[1]; SS 250 mg/kg i.p. alone", "value": "increased the intensity-response function; also recorded: significant increase in startle amplitude"}, {"measurement": "Gap-PPI relative to baseline, 12-20 kHz carrier", "setting": "[2]; SS 250 mg/kg i.p. alone", "value": "reduced Gap-PPI; also recorded: significant decrease in % Gap PPI"}, {"measurement": "Gap-PPI, 24 kHz carrier", "setting": "[2]; SS 250 mg/kg i.p. alone", "value": "did not influence Gap-PPI"}, {"measurement": "ABR P1 amplitudes relative to baseline", "setting": "[3]; SS 250 mg/kg i.p.", "value": "significantly reduced P1 amplitudes"}, {"measurement": "ABR P1 latencies relative to baseline", "setting": "[3]; SS 250 mg/kg i.p.", "value": "longer P1 latencies; also recorded: significantly delayed P1 latencies"}, {"measurement": "P2/P1 amplitude ratio relative to baseline", "setting": "[3]; [11]", "value": "substantially increased; also recorded: significantly increased the P2/P1 ratio"}, {"measurement": "P4/P1 amplitude ratio relative to baseline", "setting": "[3]; [11]", "value": "still increased; also recorded: significantly increased the P4/P1 ratio"}, {"measurement": "ABR P2 amplitude relative to baseline", "setting": "[3]; SS 250 mg/kg i.p., 12-20 kHz, higher intensities (60-80 dB SPL)", "value": "either increased or stayed the same; also recorded: increased P2 amplitude at 80 dB"}, {"measurement": "increase in ABR thresholds", "setting": "[3]; SS 250 mg/kg i.p., across the frequency spectrum", "value": "~20", "unit": "dB"}, {"measurement": "time for which behavioral manifestations of tinnitus are observed after administration", "setting": "[8]; following administration", "value": "up to 48 hours"}, {"measurement": "time of maximum levels in blood serum", "setting": "[8]; [12]", "value": 1.5, "unit": "h"}, {"measurement": "time of maximum levels in perilymph and spinal fluid", "setting": "[8]; [12]", "value": "2 to 4", "unit": "h"}]}
